# Measured values as given in patent publication US20240247266A1, “METHODS AND COMPOSITIONS FOR TREATING AN ANGIOTENSINOGEN- (AGT-) ASSOCIATED DISORDER” (Alnylam Pharmaceuticals, Inc., priority 2021, published 2024).
# Legend:
# Format in all cases: in vivo, human
# [1] = test system: patients with hypertension; experiment: Example 5: safety and tolerability during irbesartan co-administration; conditions: add-on treatment with zilebesiran
# Protocol: (§1) In a multicenter, randomized, double-blinded, placebo-controlled, single ascending fixed dose study to assess the safety and efficacy of AD-85481 (Zilebesiran) after a single fixed dose administration to subjects having hypertension (ClinicalTrials.gov Identifier: NCT03934307, Part A), a sub-study was performed to assess the safety and tolerability of AD-85481 (Zilebesiran) in hypertensive patients during irbesartan co-administration (NCT03934307, Part E). Briefly, all patients received an open-label single 800 mg fixed dose of AD-85481 by subcutaneous administration on Day 1. On Day 41, patients with a 24-hr mean systolic blood pressure (SBP)≥120 mmHg (N=10) proceeded to receive irbesartan (300 mg oral) once daily from Day 43 to Day 57 for 14 days (FIG. 10).
# (§2) The safety and tolerability, change from baseline in serum AGT, and plasma and urine pharmacokinetic parameters were evaluated. Change from baseline in blood pressure was also assessed by 24-hour ABPM.
# Safety was reported from the start of the study to Day 85. […] There was one mild SAE of acute anemia in the irbesartan add-on group, but was considered not related to study drug, which was a complication of esophagogastroduodenoscopy with biopsy performed during screening prior to dose of zilebesiran.
# serum AGT = experiment: Example 5 (Part E, irbesartan co-administration): serum AGT; conditions: add-on 300 mg orally daily after 800 mg AD-85481
# Protocol: as §1, §2
# [2] = test system: patients with hypertension; experiment: Example 5: blood pressure by 24 hour ABPM with irbesartan add-on; conditions: daily add-on for 2 weeks to zilebesiran 800 mg, Day 43-57
# Protocol: as §1, with “10). The safety and tolerability, change from baseline in serum AGT, and plasma and urine pharmacokinetic parameters were evaluated. Change from baseline in blood pressure was also assessed by 24-hour ABPM. Assessments of AD-85481 also included change from baseline in SBP and DBP determined by 24 hour ambulatory blood pressure monitoring (ABPM).” for “10).”
smiles,measurement,setting,value
CCCCC1=NC2(CCCC2)C(=O)N1Cc1ccc(-c2ccccc2-c2nnn[nH]2)cc1 [irbesartan],changes in creatinine or potassium,[1],without clinically significant changes in creatinine or potassium
same,effect on serum AGT levels,serum AGT,no additional effect
same,effect on systolic and diastolic BP (in words),[2],further reduced systolic and diastolic BP
